pEC50: −log10 of the molar value.
Experiments:
human CB1 receptors = human CB1 receptors (Homo sapiens (Human), UniProt P21554); assay: cAMP assay (functional), CHO cells expressing human CB1 receptors; type: cell-based; settings: functional cAMP assay, CHO cells expressing human CB1; read-out: human CB1 EC50
Protocol: (§1) CHO cells expressing human CB1 or CB2 receptors are seeded 17-24 hours prior to the experiment 50.000 cells per well in a black 96 well plate with flat clear bottom (Corning Costar #3904) in DMEM (Invitrogen No. 31331), 1×HT supplement, with 10% fetal calf serum and incubated at 5% CO2 and 37° C. in a humidified incubator. The growth medium was exchanged with Krebs Ringer Bicarbonate buffer with 1 mM IBMX and incubated at 30° C. for 30 min. Compounds were added to a final assay volume of 100 μl and incubated for 30 min at 30° C. Using the cAMP-Nano-TRF detection kit the assay (Roche Diagnostics) was stopped by the addition of 50 μl lysis reagent (Tris, NaCl, 1.5% Triton X100, 2.5% NP40, 10% NaN3) and 50 μl detection solutions (20 μM mAb Alexa700-cAMP 1:1, and 48 μM Ruthenium-2-AHA-cAMP) and shaken for 2 h at room temperature. The time-resolved energy transfer is measured by a TRF reader (Evotec Technologies GmbH), equipped with a ND:YAG laser as excitation source. The plate is measured twice with the excitation at 355 nm and at the emission with a delay of 100 ns and a gate of 100 ns, total exposure time 10 s at 730 (bandwidth 30 nm) or 645 nm (bandwidth 75 nm), respectively. The FRET signal is calculated as follows: FRET=T730-Alexa730-P (T645-B645) with P=Ru730-B730/Ru645-B645, where T730 is the test well measured at […], T645 is the test well measured at 645 nm, B730 and B645 are the buffer controls at 730 nm and 645 nm, respectively. cAMP content is determined from the function of a standard curve spanning from 10 μM to 0.13 nM cAMP.
(§2) EC50 values were determined using Activity Base analysis (ID Business Solution, Limited). The EC50 values for a wide range of cannabinoid agonists generated from this assay were in agreement with the values published in the scientific literature.

human CB2 receptors = human CB2 receptors (Homo sapiens (Human), UniProt P34972); assay: cAMP assay (functional), CHO cells expressing human CB2 receptors; type: cell-based; settings: functional cAMP assay, CHO cells expressing human CB2; read-out: human CB2 EC50
Protocol: as §1, §2

human CB2 receptors, sequence (P34972 whole entry): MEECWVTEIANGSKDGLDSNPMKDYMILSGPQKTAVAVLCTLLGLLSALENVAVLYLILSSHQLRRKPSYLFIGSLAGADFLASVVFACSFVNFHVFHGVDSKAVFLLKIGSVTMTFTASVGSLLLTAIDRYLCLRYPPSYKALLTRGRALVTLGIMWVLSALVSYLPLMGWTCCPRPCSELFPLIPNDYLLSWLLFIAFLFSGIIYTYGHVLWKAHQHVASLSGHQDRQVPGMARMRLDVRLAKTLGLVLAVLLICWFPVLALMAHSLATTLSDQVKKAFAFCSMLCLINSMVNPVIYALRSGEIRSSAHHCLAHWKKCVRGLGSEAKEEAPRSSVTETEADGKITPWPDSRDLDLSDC
human CB1 receptors, sequence (P21554 whole entry): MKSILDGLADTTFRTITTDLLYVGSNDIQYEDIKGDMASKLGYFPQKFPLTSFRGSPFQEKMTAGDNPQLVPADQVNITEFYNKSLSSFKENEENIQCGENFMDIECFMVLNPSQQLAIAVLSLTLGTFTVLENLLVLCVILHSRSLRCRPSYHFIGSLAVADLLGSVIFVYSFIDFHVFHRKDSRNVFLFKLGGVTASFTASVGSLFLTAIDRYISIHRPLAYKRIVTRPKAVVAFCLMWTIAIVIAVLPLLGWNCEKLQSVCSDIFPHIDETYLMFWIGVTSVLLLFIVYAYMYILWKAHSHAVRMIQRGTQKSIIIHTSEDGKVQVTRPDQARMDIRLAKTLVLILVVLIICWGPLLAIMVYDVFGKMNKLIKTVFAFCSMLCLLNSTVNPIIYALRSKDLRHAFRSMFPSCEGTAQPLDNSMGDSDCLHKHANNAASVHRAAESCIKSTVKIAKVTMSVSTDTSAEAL

## O=C(c1cnc(N2CC(F)(F)C2)c(OCC2CC2)n1)N1CCC(F)(F)C1 [Example 8, [6-Cyclopropylmethoxy-5-(3,3-difluoro-azetidin-1-yl)-pyrazin-2-yl]-(3,3-difluoro-pyrrolidin-1-yl)-methanone]
Human CB1 receptors
  pEC50: < 5.00
Human CB2 receptors
  pEC50: 7.53

## O=C(c1cnc(N2CC(F)(F)C2)c(OCC2CC2)n1)N1CCOCC12CC2 [Example 10, [6-Cyclopropylmethoxy-5-(3,3-difluoro-azetidin-1-yl)-pyrazin-2-yl]-(7-oxa-4-aza-spiro[2.5]oct-4-yl)-methanone]
Human CB1 receptors
  pEC50: < 5.00
Human CB2 receptors
  pEC50: 7.82

## CCOC(=O)CN(C(=O)c1cnc(N2CC(F)(F)C2)c(OCC2CC2)n1)C(C)(C)C [Example 11, {tert-Butyl-[6-cyclopropylmethoxy-5-(3,3-difluoro-azetidin-1-yl)-pyrazine-2-carbonyl]-amino}-acetic acid ethyl ester]
Human CB1 receptors
  pEC50: < 5.00
Human CB2 receptors
  pEC50: 8.17

## COCC(C)(C)N(C)C(=O)c1cnc(N2CC(F)(F)C2)c(OCC2CC2)n1 [Example 12, 6-Cyclopropylmethoxy-5-(3,3-difluoro-azetidin-1-yl)-pyrazine-2-carboxylic acid (2-methoxy-1,1-dimethyl-ethyl)-methyl-amide]
Human CB1 receptors
  pEC50: < 5.00
Human CB2 receptors
  pEC50: 8.04

## CC1(C)CN(C(=O)c2cnc(N3CC(F)(F)C3)c(OCC3CC3)n2)CCO1 [Example 13, [6-Cyclopropylmethoxy-5-(3,3-difluoro-azetidin-1-yl)-pyrazin-2-yl]-(2,2-dimethyl-morpholin-4-yl)-methanone]
Human CB1 receptors
  pEC50: < 5.00
Human CB2 receptors
  pEC50: 7.16

## COCC(C)(C)N(C)C(=O)c1cnc(C2CC2)c(OCC2CC2)n1 [Example 14, 5-Cyclopropyl-6-cyclopropylmethoxy-pyrazine-2-carboxylic acid (2-methoxy-1,1-dimethyl-ethyl)-methyl-amide]
Human CB1 receptors
  pEC50: < 5.00
Human CB2 receptors
  pEC50: 7.84

## COC(=O)[C@@H]1CCCN1C(=O)c1cnc(C2CC2)c(OCC2CC2)n1 [Example 16, (S)-1-(5-Cyclopropyl-6-cyclopropylmethoxy-pyrazine-2-carbonyl)-pyrrolidine-2-carboxylic acid methyl ester]
Human CB1 receptors
  pEC50: < 5.00
Human CB2 receptors
  pEC50: 6.72

## O=C(c1cnc(C2CC2)c(OCC2CC2)n1)N1CCOCC12CC2 [Example 17, (5-Cyclopropyl-6-cyclopropylmethoxy-pyrazin-2-yl)-(7-oxa-4-aza-spiro[2.5]oct-4-yl)-methanone]
Human CB1 receptors
  pEC50: < 5.00
Human CB2 receptors
  pEC50: 6.85

## NC(=O)[C@@H]1CC(F)(F)CN1C(=O)c1cnc(N2CC(F)(F)C2)c(OCC2CC2)n1 [Example 19, (S)-1-[6-Cyclopropylmethoxy-5-(3,3-difluoro-azetidin-1-yl)-pyrazine-2-carbonyl]-4,4-difluoro-pyrrolidine-2-carboxylic acid amide]
Human CB1 receptors
  pEC50: < 5.00
Human CB2 receptors
  pEC50: 8.24

## O=C(c1cnc(N2CC(F)(F)C2)c(OCC2CC2)n1)N1CCN(CCO)CC1 [Example 20, [6-Cyclopropylmethoxy-5-(3,3-difluoro-azetidin-1-yl)-pyrazin-2-yl]-[4-(2-hydroxy-ethyl)-piperazin-1-yl]-methanone]
Human CB1 receptors
  pEC50: < 5.00
Human CB2 receptors
  pEC50: 6.50

## CC1(C)CCCN1C(=O)c1cnc(N2CC(F)(F)C2)c(OCC2CC2)n1 [Example 21, [6-Cyclopropylmethoxy-5-(3,3-difluoro-azetidin-1-yl)-pyrazin-2-yl]-(2,2-dimethyl-pyrrolidin-1-yl)-methanone]
Human CB1 receptors
  pEC50: < 5.00
Human CB2 receptors
  pEC50: 8.37

## COC(=O)[C@H]1CCCN1C(=O)c1cnc(N2CC(F)(F)C2)c(OCC2CC2)n1 [Example 22, (R)-1-[6-Cyclopropylmethoxy-5-(3,3-difluoro-azetidin-1-yl)-pyrazine-2-carbonyl]-pyrrolidine-2-carboxylic acid methyl ester]
Human CB1 receptors
  pEC50: < 5.00
Human CB2 receptors
  pEC50: 6.60

## O=C1CN(C(=O)c2cnc(N3CC(F)(F)C3)c(OCC3CC3)n2)CCO1 [Example 23, 4-[6-Cyclopropylmethoxy-5-(3,3-difluoro-azetidin-1-yl)-pyrazine-2-carbonyl]-morpholin-2-one]
Human CB1 receptors
  pEC50: < 5.00
Human CB2 receptors
  pEC50: 7.74

## CN(C)C(=S)[C@H]1CCCN1C(=O)c1cnc(N2CC(F)(F)C2)c(OCC2CC2)n1 [Example 24, (R)-1-[6-Cyclopropylmethoxy-5-(3,3-difluoro-azetidin-1-yl)-pyrazine-2-carbonyl]-pyrrolidine-2-carbothioic acid dimethylamide]
Human CB1 receptors
  pEC50: < 5.00
Human CB2 receptors
  pEC50: 6.48

## CC(=O)OC1(C)CCN(C(=O)c2cnc(C3CC3)c(OCC3CC3)n2)C1 (stereo not drawn) [Example 25, Acetic acid 1-(5-cyclopropyl-6-cyclopropylmethoxy-pyrazine-2-carbonyl)-3-methyl-pyrrolidin-3-yl ester]
Human CB1 receptors
  pEC50: < 5.00
Human CB2 receptors
  pEC50: 6.96

## O=C(c1cnc(C2CC2)c(OCC2CC2)n1)N1CC(F)(F)C(F)(F)C1 [Example 26, (5-Cyclopropyl-6-cyclopropylmethoxy-pyrazin-2-yl)-(3,3,4,4-tetrafluoro-pyrrolidin-1-yl)-methanone]
Human CB1 receptors
  pEC50: < 5.00
Human CB2 receptors
  pEC50: 6.91

## CC(=O)O[C@H]1CCN(C(=O)c2cnc(N3CC(F)(F)C3)c(OCC3CC3)n2)C1 [Example 27, Acetic acid (S)-1-[6-cyclopropylmethoxy-5-(3,3-difluoro-azetidin-1-yl)-pyrazine-2-carbonyl]-pyrrolidin-3-yl ester]
Human CB1 receptors
  pEC50: < 5.00
Human CB2 receptors
  pEC50: 6.57

## O=C(c1cnc(N2CC(F)(F)C2)c(OCC2CC2)n1)N1CCC2(COC2)C1 [Example 28, [6-Cyclopropylmethoxy-5-(3,3-difluoro-azetidin-1-yl)-pyrazin-2-yl]-(2-oxa-6-aza-spiro[3.4]oct-6-yl)-methanone]
Human CB1 receptors
  pEC50: < 5.00
Human CB2 receptors
  pEC50: 6.69

## CC(=O)OC1(C)CCN(C(=O)c2cnc(N3CC(F)(F)C3)c(OCC3CC3)n2)C1 (stereo not drawn) [Example 29, Acetic acid 1-[6-cyclopropylmethoxy-5-(3,3-difluoro-azetidin-1-yl)-pyrazine-2-carbonyl]-3-methyl-pyrrolidin-3-yl ester]
Human CB1 receptors
  pEC50: < 5.00
Human CB2 receptors
  pEC50: 8.06

## O=C(c1cnc(N2CC(F)(F)C2)c(OCC2CC2)n1)N1CC(F)(F)C(F)(F)C1 [Example 30, [6-Cyclopropylmethoxy-5-(3,3-difluoro-azetidin-1-yl)-pyrazin-2-yl]-(3,3,4,4-tetrafluoro-pyrrolidin-1-yl)-methanone]
Human CB1 receptors
  pEC50: < 5.00
Human CB2 receptors
  pEC50: 7.58

## CN(C(=O)c1cnc(N2CC(F)(F)C2)c(OCC(F)(F)F)n1)C(C)(C)C [Example 31, 5-(3,3-Difluoro-azetidin-1-yl)-6-(2,2,2-trifluoro-ethoxy)-pyrazine-2-carboxylic acid tert-butyl-methyl-amide]
Human CB1 receptors
  pEC50: < 5.00
Human CB2 receptors
  pEC50: 6.89

## CC1(C)CCCN1C(=O)c1cnc(N2CC(F)(F)C2)c(OCC(F)(F)F)n1 [Example 32, [5-(3,3-Difluoro-azetidin-1-yl)-6-(2,2,2-trifluoro-ethoxy)-pyrazin-2-yl]-(2,2-dimethyl-pyrrolidin-1-yl)-methanone]
Human CB1 receptors
  pEC50: < 5.00
Human CB2 receptors
  pEC50: 7.09

## NC(=O)C1CCCCN1C(=O)c1cnc(N2CC(F)(F)C2)c(OCC2CC2)n1 (stereo not drawn) [Example 33, 1-[6-Cyclopropylmethoxy-5-(3,3-difluoro-azetidin-1-yl)-pyrazine-2-carbonyl]-piperidine-2-carboxylic acid amide]
Human CB1 receptors
  pEC50: < 5.00
Human CB2 receptors
  pEC50: 6.48

## CC1(C)CC(C(N)=O)N(C(=O)c2cnc(C3CC3)c(OCC3CC3)n2)C1 (stereo not drawn) [Example 34, 1-(5-Cyclopropyl-6-cyclopropylmethoxy-pyrazine-2-carbonyl)-4,4-dimethyl-pyrrolidine-2-carboxylic acid amide]
Human CB1 receptors
  pEC50: < 5.00
Human CB2 receptors
  pEC50: 8.80

## CC1(C)CC(C(N)=O)N(C(=O)c2cnc(N3CC(F)(F)C3)c(OCC3CC3)n2)C1 (stereo not drawn) [Example 35, 1-[6-Cyclopropylmethoxy-5-(3,3-difluoro-azetidin-1-yl)-pyrazine-2-carbonyl]-4,4-dimethyl-pyrrolidine-2-carboxylic acid amide]
Human CB1 receptors
  pEC50: < 5.00
Human CB2 receptors
  pEC50: 7.94

## CC1(O)C[C@@H](C(N)=O)N(C(=O)c2cnc(N3CC(F)(F)C3)c(OCC3CC3)n2)C1 (stereo partly drawn) [Example 41, (2S)-1-[6-(Cyclopropylmethoxy)-5-(3,3-difluoroazetidin-1-yl)pyrazine-2-carbonyl]-4-hydroxy-4-methylpyrrolidine-2-carboxamide]
Human CB1 receptors
  pEC50: < 5.00
Human CB2 receptors
  pEC50: 7.05

## NC(=O)[C@@H]1CC(F)(F)CN1C(=O)c1cnc(N2CC(F)(F)C2)c(OCC(F)F)n1 [Example 42, (2S)-1-[5-(3,3-Difluoroazetidin-1-yl)-6-(2,2-difluoroethoxyl)pyrazine-2-carbonyl]-4,4-difluoro-pyrrolidine-2-carboxamide]
Human CB1 receptors
  pEC50: < 5.00
Human CB2 receptors
  pEC50: 6.51

Source: US9512141B2, “Pyrazine derivatives as CB2 receptor agonists” (Hoffmann-La Roche Inc., priority 2012, dated 2016)
